Experiments:
[1] = test system: HCT-116; assay: Cytotoxicity screening, HCT-116 (MTT); assay type: cell-based, human; settings: for EC50: 5 d treatment, MTT
Procedure: Half maximal effective concentrations (EC50) on human cancer cell lines were determined as described elsewhere. Human cancer cell lines were maintained as recommended by the depositor (German Collection of Microorganisms and Cell Cultures, DSMZ) and were treated for 5 d with carolacton in serial dilution. The viability of adherent cell types, HCT-116 (ACC 581), KB-3.1 (ACC-158) and KB-V.1 (ACC-149) was assessed by the addition of MTT tetrazolium salt and absorbance measurement at 570 nm. Histiocytic lymphoma U-937 cells (ACC-5) were maintained in RPMI 1640 medium and transferred into folate-free medium prior to the assay. Cell viability was determined by measuring alamar blue fluorescence emission at 590 nm. The values were referenced and EC50 values were determined by sigmoidal curve fitting. The cell lines KB-3.1 and KB-V.1 are originally derived from HeLa, whereas the latter is an MDR subclone of KB-3.1. They were used to directly compare the activity of carolacton on an mdr1 overexpressing and a sensitive cell line.

[2] = target: T1, ecFolD K54N (Escherichia coli, UniProt P24186, K54N); assay: SPR binding to ecFolD K54N; set-up: species or system E. coli; settings: K54N mutant
T1 construct: His-tag (TEV-cleavable, vector pHis-TEV); made in house; host or cells: E. coli BL21 (DE3)
Procedure: All surface plasmon resonance (SPR) experiments described in this study were performed on a Biacore X100 system. Different FolDs with or without His-tag were coupled on CM5 sensor chips (GE Healthcare) by the amine coupling method using a kit from GE Healthcare Life Sciences (Freiburg, Germany). A pH scouting process was performed before protein immobilization to test the most appropriate buffer and the protein concentration for protein coupling. Finally, 20 μg/mL of ecFolD in 10 mM maleate buffer (pH 6.8), 30 μg/mL of ecFolD Q98H in 10 mM maleate buffer (pH 6.3), 40 μg/mL of ecFolD K54N in 10 mM maleate buffer (pH 5.8), 20 μg/mL of spFolD in 10 mM maleate buffer (pH 6.0) and 15 μg/mL of MTHFD2 (His-tag cleaved) in 10 mM maleate buffer (pH 6.8) were used for coupling. In the protein immobilization procedure, the contact time was calculated based on the pH scouting results to achieve ~3000–5000 relative resonance units (RU). The buffer used in the SPR assays was 1× HBS-P buffer (10 mM HEPES pH 7.4, 150 mM NaCl, 0.05% Tween 20). The 1 mM stock solution of carolacton was prepared in 1× HBS-P buffer and diluted to different concentration ranges by two-fold serial dilution. In the SPR assay, the association time was 180 s and the dissociation time was 600 s. Data analysis was performed using the Biacore evaluation software. […]

SMILES: CO[C@H](CC(=O)O)[C@@H](C)C(=O)[C@H](C)/C=C(\C)[C@H]1OC(=O)[C@H](O)[C@H](O)/C=C/[C@H](C)CCC[C@@H]1C [carolacton]
- EC50 [1]: 24.6 ± 0.8 µM
- EC50 ([1]; Homo sapiens, HCT-116, 120 h): 25 µM
- Maximum inhibition ([1]; inhibition of cell growth, 5 d): >80%
- binding by SPR [2]: does not bind

Reference: paper PMC5688156, “The natural product carolacton inhibits folate-dependent C1 metabolism by targeting FolD/MTHFD” (Nature Communications, 2017)
